Results from PMC7732020 (Nucleosides, nucleotides & nucleic acids, 2009).
Where two headings read alike, the source gives them in different places.

How the values were obtained:
[1] = tested on: HIV; details: isomeric adenine nucleosides with 2′-α-fluoro atom; cited from earlier work
[2] = tested on: HIV-1; details: read-out: Anti-HIV-1 activity EC50; PBM cells; taken from literature; cited from earlier work
[3] = tested on: human PBM cells; details: cited from earlier work
[4] = tested on: HIV-1; experiment: Anti-HIV-1 activity in human PBM cells; assay type: cell-based; details: primary human PBM cells; for EC50: read-out: Anti-HIV-1 activity EC50; for EC90: read-out: Anti-HIV-1 activity EC90
[5] = tested on: human PBM cells
[6] = tested on: Vero cells
[7] = tested on: HCV; experiment: Anti-HCV activity in replicon assay Huh7 cells; assay type: cell-based, hepatitis C virus; details: for EC50: read-out: Anti-HCV activity EC50; for EC90: read-out: Anti-HCV activity EC90
[8] = tested on: Huh-7 Replicon cells; experiment: Toxicity in Huh-7 Replicon cells; details: read-out: CC50 (toxicity in Huh-7 Replicon cells); replicon assay Huh7 cells
[9] = tested on: CEM cells

Nc1ncnc2c1ncn2[C@@H]1O[C@H](CO)[C@@H](F)[C@H]1F [2′,3′-dideoxy-2′,3′-difluoro–adenosine]
antiviral activity [1]: without antiviral activity

Nc1ncnc2c1ncn2[C@@H]1O[C@H](CO)C[C@H]1F [2′-α-FddA, 9-(2′,3′-dideoxy-2′-fluoro-β-D-erythro-pentofuranosyl)adenine]
antiviral activity [1]: without antiviral activity

Nc1ncnc2c1ncn2[C@@H]1O[C@H](CO)C[C@@H]1F [2′-β-FddA, lodenosine]
EC50 [2]: 4.4 µM
CC50 [3]: > 100 µM

Cc1cn([C@H]2C[C@H](N=[N+]=[N-])[C@@H](CO)O2)c(=O)[nH]c1=O [AZT, reference compound]
EC50 [4]: 0.0026 µM
EC90 [4]: 0.01 µM
CC50 [5]: > 100 µM
CC50 [6]: 56 µM

C[C@@]1(O)[C@H](O)[C@@H](CO)O[C@H]1n1ccc(N)nc1=O [Compound 2-C-Me-C, reference compound]
EC50 [7]: 1.3 µM
EC90 [7]: 5.4 µM
CC50 [8]: > 10 µM

Nc1ncnc2c1ncn2[C@@H]1O[C@H](CO)[C@@H](F)[C@@H]1F [Compound 20, 9-(2′,3′-Dideoxy-2′,3′-difluoro-β-D-arabinofuranosyl)adenine]
EC50 [4]: 0.72 µM
EC90 [4]: 10.3 µM
EC50 [7]: > 10 µM
EC90 [7]: > 10 µM
CC50 [5]: > 100 µM
CC50 [9]: > 100 µM
CC50 [6]: > 100 µM
CC50 [8]: > 10 µM

Nc1nc(Cl)nc2c1ncn2[C@@H]1O[C@H](CO)[C@@H](F)[C@@H]1F [Compound 22, 2-chloro-9-(2′,3′-dideoxy-2,3-difluoro-β-D-arabinofuranosyl)adenine]
EC50 [4]: 14.1 µM
EC90 [4]: 46.3 µM
EC50 [7]: > 10 µM
EC90 [7]: > 10 µM
CC50 [5]: 13.6 µM
CC50 [9]: 70.2 µM
CC50 [6]: > 100 µM
CC50 [8]: > 10 µM
